Source: ChEMBL document CHEMBL1143309, “Bisubstrate Inhibitors of the MYST HATs Esa1 and Tip60” (Bioorg Med Chem, 2009)

Tests used:
[1] = target: Histone acetyltransferase KAT2B (Homo sapiens, UniProt Q92831); assay: Inhibition of PCAF HAT domain (493-658) expressed in Escherichia coli BL21 (DE3)
[2] = target: Histone acetyltransferase p300 (Homo sapiens, UniProt Q09472); assay: Inhibition of recombinant p300
[3] = target: T1, Histone acetyltransferase KAT5 (Homo sapiens, UniProt Q92993); assay: Inhibition of recombinant Tip60 (1-513) expressed in Escherichia coli BL21 (DE3) by liquid scintillation
[4] = Inhibition of His6x-tagged yeast recombinant Esa1 (105-445) expressed in Escherichia coli BL21 (DE3) by liquid scintillation; parameters: species or system Saccharomyces cerevisiae
[5] = target: T1, Histone acetyltransferase KAT5; assay: Inhibition of TIP60 in human HeLa cell extracts by ELISA

Chain of Histone acetyltransferase KAT2B (Q92831 whole entry, the tested form may be a part): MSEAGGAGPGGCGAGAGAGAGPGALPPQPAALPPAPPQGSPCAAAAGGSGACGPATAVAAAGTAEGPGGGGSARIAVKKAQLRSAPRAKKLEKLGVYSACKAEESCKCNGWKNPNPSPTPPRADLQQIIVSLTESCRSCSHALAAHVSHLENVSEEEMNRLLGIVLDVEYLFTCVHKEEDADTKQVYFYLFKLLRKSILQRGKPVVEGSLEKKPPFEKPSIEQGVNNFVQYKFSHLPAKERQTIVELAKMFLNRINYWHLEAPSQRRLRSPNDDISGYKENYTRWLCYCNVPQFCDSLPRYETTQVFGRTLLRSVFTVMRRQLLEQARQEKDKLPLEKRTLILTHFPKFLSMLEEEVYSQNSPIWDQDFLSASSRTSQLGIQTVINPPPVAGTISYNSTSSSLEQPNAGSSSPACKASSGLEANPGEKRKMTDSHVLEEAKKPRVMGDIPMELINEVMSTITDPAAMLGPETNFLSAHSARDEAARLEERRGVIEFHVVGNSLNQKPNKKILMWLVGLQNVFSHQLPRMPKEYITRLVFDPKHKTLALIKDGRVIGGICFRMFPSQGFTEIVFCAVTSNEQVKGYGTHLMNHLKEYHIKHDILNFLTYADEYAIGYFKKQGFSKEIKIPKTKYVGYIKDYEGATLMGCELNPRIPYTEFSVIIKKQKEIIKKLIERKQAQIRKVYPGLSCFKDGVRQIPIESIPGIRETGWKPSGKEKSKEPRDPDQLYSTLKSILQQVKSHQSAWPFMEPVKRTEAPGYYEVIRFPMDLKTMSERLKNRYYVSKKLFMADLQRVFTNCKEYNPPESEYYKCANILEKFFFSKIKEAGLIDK
Chain of Histone acetyltransferase p300 (Q09472 whole entry): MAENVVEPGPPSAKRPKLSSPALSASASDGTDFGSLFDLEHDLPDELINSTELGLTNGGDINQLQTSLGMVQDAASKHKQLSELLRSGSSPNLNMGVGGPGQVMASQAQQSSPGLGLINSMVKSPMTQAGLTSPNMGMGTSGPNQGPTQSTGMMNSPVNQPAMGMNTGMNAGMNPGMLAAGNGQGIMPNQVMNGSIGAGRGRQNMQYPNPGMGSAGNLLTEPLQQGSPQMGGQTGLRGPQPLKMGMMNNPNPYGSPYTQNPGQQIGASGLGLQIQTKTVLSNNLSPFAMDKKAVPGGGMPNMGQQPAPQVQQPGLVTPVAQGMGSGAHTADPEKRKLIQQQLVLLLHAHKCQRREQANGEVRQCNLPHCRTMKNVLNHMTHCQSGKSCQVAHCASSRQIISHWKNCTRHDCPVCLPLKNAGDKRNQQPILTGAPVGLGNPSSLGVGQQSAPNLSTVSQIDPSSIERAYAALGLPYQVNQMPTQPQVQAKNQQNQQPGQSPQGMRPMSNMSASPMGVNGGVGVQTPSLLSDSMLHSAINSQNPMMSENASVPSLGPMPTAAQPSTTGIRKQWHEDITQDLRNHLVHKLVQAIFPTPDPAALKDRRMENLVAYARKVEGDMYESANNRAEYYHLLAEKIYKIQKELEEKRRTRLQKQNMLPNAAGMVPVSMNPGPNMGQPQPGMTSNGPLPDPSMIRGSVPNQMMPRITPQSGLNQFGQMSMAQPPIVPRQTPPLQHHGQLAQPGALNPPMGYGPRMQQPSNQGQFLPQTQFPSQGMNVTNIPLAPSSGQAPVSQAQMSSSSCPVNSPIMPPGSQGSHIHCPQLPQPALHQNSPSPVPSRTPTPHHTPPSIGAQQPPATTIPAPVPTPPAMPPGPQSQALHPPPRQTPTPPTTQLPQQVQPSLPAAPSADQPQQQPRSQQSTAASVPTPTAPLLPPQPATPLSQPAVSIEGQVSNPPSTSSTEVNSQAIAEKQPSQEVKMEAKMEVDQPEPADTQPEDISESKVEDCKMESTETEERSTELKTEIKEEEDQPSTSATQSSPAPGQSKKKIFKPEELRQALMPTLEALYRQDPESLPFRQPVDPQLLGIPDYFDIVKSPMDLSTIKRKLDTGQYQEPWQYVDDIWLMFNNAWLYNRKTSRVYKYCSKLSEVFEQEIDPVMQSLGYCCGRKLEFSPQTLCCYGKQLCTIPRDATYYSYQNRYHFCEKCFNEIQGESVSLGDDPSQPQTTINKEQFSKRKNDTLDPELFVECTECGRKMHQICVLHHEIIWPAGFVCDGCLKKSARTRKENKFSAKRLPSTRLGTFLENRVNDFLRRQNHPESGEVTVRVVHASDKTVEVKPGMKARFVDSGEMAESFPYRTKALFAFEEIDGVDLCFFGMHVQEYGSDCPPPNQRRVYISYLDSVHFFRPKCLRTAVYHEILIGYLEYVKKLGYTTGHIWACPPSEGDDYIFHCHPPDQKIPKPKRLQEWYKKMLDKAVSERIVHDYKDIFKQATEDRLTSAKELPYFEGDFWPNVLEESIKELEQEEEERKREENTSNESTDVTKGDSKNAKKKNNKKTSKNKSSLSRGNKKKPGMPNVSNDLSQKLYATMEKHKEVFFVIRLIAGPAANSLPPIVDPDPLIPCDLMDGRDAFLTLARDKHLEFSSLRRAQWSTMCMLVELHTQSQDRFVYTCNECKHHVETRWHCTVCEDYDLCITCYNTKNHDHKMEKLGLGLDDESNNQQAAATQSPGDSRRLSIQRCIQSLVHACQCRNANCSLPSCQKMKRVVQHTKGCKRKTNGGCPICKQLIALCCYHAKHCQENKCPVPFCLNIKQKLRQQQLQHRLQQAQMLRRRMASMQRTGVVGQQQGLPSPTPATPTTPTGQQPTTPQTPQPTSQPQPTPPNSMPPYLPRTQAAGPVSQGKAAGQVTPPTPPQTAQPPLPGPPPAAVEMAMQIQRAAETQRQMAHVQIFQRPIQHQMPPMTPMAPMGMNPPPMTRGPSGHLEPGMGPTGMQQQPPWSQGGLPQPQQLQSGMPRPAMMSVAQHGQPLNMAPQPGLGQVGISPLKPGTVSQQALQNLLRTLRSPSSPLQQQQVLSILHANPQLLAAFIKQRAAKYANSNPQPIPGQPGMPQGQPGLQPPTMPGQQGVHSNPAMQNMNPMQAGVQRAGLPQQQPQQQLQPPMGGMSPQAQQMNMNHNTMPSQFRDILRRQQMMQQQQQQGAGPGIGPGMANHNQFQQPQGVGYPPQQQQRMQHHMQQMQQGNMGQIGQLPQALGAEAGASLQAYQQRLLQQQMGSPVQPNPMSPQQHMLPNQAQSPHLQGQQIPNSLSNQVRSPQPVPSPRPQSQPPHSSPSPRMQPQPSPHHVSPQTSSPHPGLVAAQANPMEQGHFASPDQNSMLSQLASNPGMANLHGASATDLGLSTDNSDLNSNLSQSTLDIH
T1 sequence (Q92993 whole entry): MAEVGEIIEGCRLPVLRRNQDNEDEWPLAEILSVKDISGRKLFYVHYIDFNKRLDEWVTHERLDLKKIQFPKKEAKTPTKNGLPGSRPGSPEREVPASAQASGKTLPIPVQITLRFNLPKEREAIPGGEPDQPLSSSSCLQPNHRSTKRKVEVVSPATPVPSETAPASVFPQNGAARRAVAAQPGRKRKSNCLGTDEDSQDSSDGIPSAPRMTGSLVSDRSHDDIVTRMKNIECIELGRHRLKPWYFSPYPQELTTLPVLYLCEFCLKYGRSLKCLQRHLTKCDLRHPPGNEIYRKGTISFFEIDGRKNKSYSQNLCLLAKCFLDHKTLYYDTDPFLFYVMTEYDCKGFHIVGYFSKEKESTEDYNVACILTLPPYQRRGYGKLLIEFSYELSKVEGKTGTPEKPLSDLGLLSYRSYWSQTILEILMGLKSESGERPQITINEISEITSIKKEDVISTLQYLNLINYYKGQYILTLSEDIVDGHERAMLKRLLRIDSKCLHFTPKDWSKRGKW

IC50 [1] [µM] | IC50 [2] [µM] | IC50 [3] [µM] | IC50 [4] [µM] | IC50 [5] [µM] | SMILES
41.9 | 45.9 | 82.3 | 68.6 | – | CC(C)(COP(=O)(O)OP(=O)(O)OC[C@H]1O[C@@H](n2cnc3c(N)ncnc32)[C@H](O)[C@@H]1OP(=O)(O)O)[C@@H](O)C(=O)NCCC(=O)NCCS [COENZYME_A]
– | – | > 200 | > 150 | – | COc1cc(/C=C/C(=O)CC(=O)/C=C/c2ccc(O)c(OC)c2)ccc1O [CURCUMIN]
108 | 0.98 | 29.8 | 7 | – | CC(=O)N[C@@H](CCCCNC(=O)CSCCNC(=O)CCNC(=O)[C@H](O)C(C)(C)COP(=O)(O)OP(=O)(O)OC[C@H]1O[C@@H](n2cnc3c(N)ncnc32)[C@H](O)[C@@H]1OP(=O)(O)O)C(N)=O
667 | > 1000 | 375 | 297 | 9 | C=CC/C=C\C/C=C\CCCCCCCc1cccc(O)c1C(=O)O [ANACARDIC ACID]
